Experimental data reported in PMC11983575, “Study on the synthesis and biological activity of kojic acid triazol thiosemicarbazide Schiff base derivatives” (Journal of Enzyme Inhibition and Medicinal Chemistry, 2025).

Assays:
mushroom tyrosinase = mushroom tyrosinase (Agaricus bisporus, UniProt C7FF04); experiment: In vitro mushroom tyrosinase inhibition (L-DOPA substrate); assay type: biochemical; conditions: 475 nm, read-out: IC50 (μM) ± SD, inhibitory tyrosinase activity
Method: The mushroom tyrosinase inhibitory activity was determined according to previous described method. Briefly, 168 μl of phosphate buffer (0.1 M, pH 6.8), 10 μl of mushroom tyrosinase (0.5 mg/ml, Sigma Chemical, St. Louis, MO) and 2 μl of the inhibitor solution were placed in the wells of a 96-well micro plate. After pre-incubation for 20 min at 37 °C, 20 μl of 2.0 mg/ml L-DOPA (3,4-dihydroxyphenylalanine, Sigma Chemical, St. Louis, MO) was added and the enzyme activity was measured at 475 nm every 60 s for 180 s in a Microplate Reader (Bio-Rad Laboratories, Inc., Hercules, CA). Kojic acid and phosphate buffer were respectively used as positive and negative control. The extent of inhibition by the test compounds was expressed as the percentage of concentration necessary to achieve 50% inhibition (IC50). The percentage of inhibition was calculated as follows: inhibitory rate (%) = [Ac − At)/Ac] × 100. Ac is the absorbance of the negative control and At is the absorbance of the test compound. Each concentration was analysed in three independent experiments run in triplicate. The IC50 values were determined by the data analysis software GraphPad Prism 8 (La Jolla, CA).
The tyrosinase inhibition measurements of compounds 6a–6x were carried out using L-DOPA as substrate. Kojic acid was selected as a positive control compound. […]. […] Moreover, inhibitory activity of compound with hydroxyl group at papa position is better than the inhibitory activity of compound with hydroxyl group at meta position, and inhibitory activity of compound with hydroxyl group at meta position is better than the inhibitory activity of compound with hydroxyl group at ortho position. […]. […] In addition, with the increase of atomic radius, the inhibitory activity gradually decreases. (3) The inhibitory activity of alkoxy substituted compound is better than that of alkyl substituted compound. (4) Comparing the tyrosinase inhibitory activity of compounds with halogen atom (6b–6d, 6q–6s) and compounds with methyl or methoxy (6e–6f, 6t–6u), when the hydrogen (R^2) was replaced by the methyl (R^2), the inhibitory activity was decreased.

tyrosinase = target: T1, tyrosinase (Agaricus bisporus, UniProt C7FF04); experiment: Fluorescence quenching of tyrosinase (Stern-Volmer); assay type: binding; conditions: for KSV / Kq: Stern-Volmer
T1 construct: purchased Sigma-Aldrich Chemical Co. (Shanghai, China)
Method: To investigate fluorescence quenching role of inhibitor to the tyrosinase, fluorescence experiments were carried according to the reported method. To determine the linear concentration range of the fluorescence, compound 6w was first dissolved in DMSO. The concentration of the solution was 10 mM, and then was diluted with sodium phosphate buffer. The ultimate concentration was changed from 0 to 50 μM. A series of 3 ml solutions containing 1.5 ml of tyrosinase solution were added to a centrifuge tube and then accurately mixed with different concentrations of 6w solution range from 0 to 50 μM. Cary Eclipse G9800A fluorescence spectrophotometer (Agilent Technologies Co., Santa Clara, CA) was employed to detect the fluorescence intensity. The excitation wavelength was set to 280 nm, the bath was set as three temperatures (292 K, 298 K, and 304 K) with a scanning wavelength change from 300 to 500 nm. The excitation and emission bandwidths were 5 nm. The final tyrosinase concentration was 0.05 mg/ml.
Fluorescence quenching means that some small molecule compounds bind to protein that can affect the fluorescence intensity of the fluorophore. Therefore, in order to obtain information about conformational changes of enzymes, fluorescence spectroscopy has become a very important research tool. With increasing concentrations of compound 6w, the dramatically decreasing fluorescence intensity of tyrosinase could be found. […] At the same time, there was no significant red shift or blue shift in the fluorescence emission peak of tyrosinase after the addition of compound 6w. […] The quenching of the intrinsic fluorescence provided a direct and clear evidence that the inhibitor 6w was capable of binding to tyrosinase, and the binding of 6w to tyrosinase led to change in the microenvironment around the fluorophore, and the detailed KSV values are summarised Table 2.
Figure 3. (A) Changes in the tyrosinase fluorescence at different concentrations of compound 6w (λex = 280 nm, T = 298 K). The final enzyme concentration was 0.05 mg/ml, and c (compound 6w) = 0 μM, 5 μM, 15 μM, 20 μM, 25 μM, 30 μM, 35 μM, 40 μM, 45 μM, and 50 μM for the curves from top to bottom, respectively. (B) The Stern–Volmer figure of compound 6w and tyrosinase at 292, 298, and 304 K.

[1] = DPPH free radical scavenging activity assay; conditions: DPPH 150 μM, 30 min, 517 nm; read-out: DPPH/IC50 (μM) ± SD
Method: The anti-oxidation effect on DPPH radical was determined by a slightly modified version of a previously described DPPH radical scavenging assay. Reaction mixtures consisted of 100 μl of DPPH (150 μM), 20 μl of increasing concentration of test compounds and the volume was adjusted to 200 μl in each well with DMSO. The assay solution was then incubated at room temperature (25 °C) for 30 min in the dark. After the incubation, absorbance at 517 nm was measured by using UV-2600 spectrophotometer. The experiments were undertaken in triplicate. DMSO was used as a control. Ascorbic acid was used as antioxidant standard for comparison of the activity. The calculation of DPPH radical scavenging activity was followed by this formula: DPPH radical scavenging activity %=absorbance of standard−absorbance of sample/Absorbance of standard×100

T1 sequence (C7FF04 1-392 limits assumed): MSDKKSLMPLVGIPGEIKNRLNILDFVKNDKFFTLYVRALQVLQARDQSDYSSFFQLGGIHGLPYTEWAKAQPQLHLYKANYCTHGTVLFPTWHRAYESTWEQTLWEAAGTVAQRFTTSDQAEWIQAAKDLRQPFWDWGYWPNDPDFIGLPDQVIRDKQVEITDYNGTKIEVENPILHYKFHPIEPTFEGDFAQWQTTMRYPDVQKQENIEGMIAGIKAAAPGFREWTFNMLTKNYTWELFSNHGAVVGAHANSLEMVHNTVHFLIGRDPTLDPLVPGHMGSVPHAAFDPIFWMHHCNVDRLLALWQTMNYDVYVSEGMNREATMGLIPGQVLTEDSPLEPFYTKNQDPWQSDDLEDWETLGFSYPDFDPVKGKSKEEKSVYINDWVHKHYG
Sequence of mushroom tyrosinase (C7FF04 1-392): as the sequence (C7FF04 1-392 limits assumed) above

In the case of “2-(1-(4-((1-((5-Hydroxy-4-oxo-4H-pyran-2-yl)methyl)-1H-1,2,3-triazol-5-yl)methoxy)phenyl)ethylidene)hydrazinecarbothioamide [Compound 6w]”, the IC50 (mushroom tyrosinase) is reported as 0.94 ± 0.035 µM, the fluorescence quenching mechanism (tyrosinase; 292, 298 and 304 K) is reported as “dynamic quenching” and the KSV (tyrosinase; T 292 K) is reported as 0.03005 L/µmol. The Kq (tyrosinase; T 292 K) was 3.0052e+13 M⁻¹ s⁻¹, the KSV (tyrosinase; T 298 K) was 0.04605 L/µmol and the Kq (tyrosinase; T 298 K) was 4.6048e+13 M⁻¹ s⁻¹. The KSV (tyrosinase; T 304 K) was 0.06529 L/µmol, the Kq (tyrosinase; T 304 K) was 6.5292e+13 M⁻¹ s⁻¹ and the IC50 [1] was 14.44 ± 0.077 µM.
